Measured values reported in ChEMBL document CHEMBL5653631, “A Potent and Selective ULK1 Inhibitor Suppresses Autophagy and Sensitizes Cancer Cells to Nutrient Stress” (iScience, 2018).
Values belong to the compound of their own block, whether it stands above or below them.

Assays:
[1] = molecular target: Tyrosine-protein kinase ABL2 (Homo sapiens) (UniProt P42684); assay: Inhibition of human recombinant ABL2 at 500 nM related to control ULK1
[2] = molecular target: Platelet-derived growth factor receptor alpha (Homo sapiens) (UniProt P16234); assay: Inhibition of human recombinant PDGFRa at 15 nM related to control ULK1
[3] = molecular target: T1, Mitogen-activated protein kinase kinase kinase kinase 2 (Homo sapiens) (UniProt Q12851); assay: Inhibition of human recombinant GCK at 15 nM in presence of ATP by radiometric assay relative to control
T1 sequence (whole entry): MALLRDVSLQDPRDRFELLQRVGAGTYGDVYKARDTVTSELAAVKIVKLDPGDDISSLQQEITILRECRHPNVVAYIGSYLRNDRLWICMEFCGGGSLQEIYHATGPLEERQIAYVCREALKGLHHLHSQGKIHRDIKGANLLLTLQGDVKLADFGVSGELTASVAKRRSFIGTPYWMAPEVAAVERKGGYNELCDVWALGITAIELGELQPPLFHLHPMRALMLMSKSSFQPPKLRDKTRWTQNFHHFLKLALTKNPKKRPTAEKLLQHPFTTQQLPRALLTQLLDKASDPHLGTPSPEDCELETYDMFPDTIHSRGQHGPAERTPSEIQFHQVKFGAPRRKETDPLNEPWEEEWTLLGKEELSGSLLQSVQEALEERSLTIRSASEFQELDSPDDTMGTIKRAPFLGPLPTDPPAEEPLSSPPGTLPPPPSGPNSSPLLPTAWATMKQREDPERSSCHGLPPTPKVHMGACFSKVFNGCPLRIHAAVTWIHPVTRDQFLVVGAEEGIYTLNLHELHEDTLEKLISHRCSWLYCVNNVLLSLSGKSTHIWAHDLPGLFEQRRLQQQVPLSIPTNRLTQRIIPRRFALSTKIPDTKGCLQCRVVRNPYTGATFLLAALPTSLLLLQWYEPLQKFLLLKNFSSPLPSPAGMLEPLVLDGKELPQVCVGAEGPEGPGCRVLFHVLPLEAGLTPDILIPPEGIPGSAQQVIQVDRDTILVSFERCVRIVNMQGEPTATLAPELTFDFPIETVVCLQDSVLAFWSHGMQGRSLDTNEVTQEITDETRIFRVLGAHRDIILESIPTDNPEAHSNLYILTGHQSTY

[4] = molecular target: T2, Serine/threonine-protein kinase Nek2 (Homo sapiens) (UniProt P51955); assay: Inhibition of human recombinant NEK2 at 40 nM related to control ULK1
T2 sequence (whole entry): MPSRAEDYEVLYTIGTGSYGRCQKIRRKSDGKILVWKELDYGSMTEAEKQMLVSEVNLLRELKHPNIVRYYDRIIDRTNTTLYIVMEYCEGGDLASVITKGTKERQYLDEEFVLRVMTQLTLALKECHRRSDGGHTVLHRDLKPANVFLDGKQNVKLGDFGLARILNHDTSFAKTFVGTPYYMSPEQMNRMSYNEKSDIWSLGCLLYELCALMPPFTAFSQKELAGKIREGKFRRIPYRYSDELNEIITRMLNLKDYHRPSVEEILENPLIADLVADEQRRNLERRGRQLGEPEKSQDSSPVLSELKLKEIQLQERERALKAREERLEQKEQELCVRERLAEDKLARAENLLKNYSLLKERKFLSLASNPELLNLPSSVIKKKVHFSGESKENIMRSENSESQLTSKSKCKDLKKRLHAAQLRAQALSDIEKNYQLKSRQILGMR

[5] = molecular target: Serine/threonine-protein kinase WNK3 (Homo sapiens) (UniProt Q9BYP7); assay: Inhibition of human recombinant Wnk3 at 40 nM related to control ULK1
[6] = molecular target: Serine/threonine-protein kinase Chk2 (Homo sapiens) (UniProt O96017); assay: Inhibition of human recombinant CHK2 at 40 nM related to control ULK1
[7] = molecular target: Serine/threonine-protein kinase pim-3 (Homo sapiens) (UniProt Q86V86); assay: Inhibition of human recombinant PIM3 at 40 nM related to control ULK1
[8] = molecular target: T3, Tyrosine-protein kinase JAK3 (Homo sapiens) (UniProt P52333); assay: Inhibition of human recombinant JAK3 at 40 nM in presence of ATP by radiometric assay relative to control
T3 sequence (whole entry): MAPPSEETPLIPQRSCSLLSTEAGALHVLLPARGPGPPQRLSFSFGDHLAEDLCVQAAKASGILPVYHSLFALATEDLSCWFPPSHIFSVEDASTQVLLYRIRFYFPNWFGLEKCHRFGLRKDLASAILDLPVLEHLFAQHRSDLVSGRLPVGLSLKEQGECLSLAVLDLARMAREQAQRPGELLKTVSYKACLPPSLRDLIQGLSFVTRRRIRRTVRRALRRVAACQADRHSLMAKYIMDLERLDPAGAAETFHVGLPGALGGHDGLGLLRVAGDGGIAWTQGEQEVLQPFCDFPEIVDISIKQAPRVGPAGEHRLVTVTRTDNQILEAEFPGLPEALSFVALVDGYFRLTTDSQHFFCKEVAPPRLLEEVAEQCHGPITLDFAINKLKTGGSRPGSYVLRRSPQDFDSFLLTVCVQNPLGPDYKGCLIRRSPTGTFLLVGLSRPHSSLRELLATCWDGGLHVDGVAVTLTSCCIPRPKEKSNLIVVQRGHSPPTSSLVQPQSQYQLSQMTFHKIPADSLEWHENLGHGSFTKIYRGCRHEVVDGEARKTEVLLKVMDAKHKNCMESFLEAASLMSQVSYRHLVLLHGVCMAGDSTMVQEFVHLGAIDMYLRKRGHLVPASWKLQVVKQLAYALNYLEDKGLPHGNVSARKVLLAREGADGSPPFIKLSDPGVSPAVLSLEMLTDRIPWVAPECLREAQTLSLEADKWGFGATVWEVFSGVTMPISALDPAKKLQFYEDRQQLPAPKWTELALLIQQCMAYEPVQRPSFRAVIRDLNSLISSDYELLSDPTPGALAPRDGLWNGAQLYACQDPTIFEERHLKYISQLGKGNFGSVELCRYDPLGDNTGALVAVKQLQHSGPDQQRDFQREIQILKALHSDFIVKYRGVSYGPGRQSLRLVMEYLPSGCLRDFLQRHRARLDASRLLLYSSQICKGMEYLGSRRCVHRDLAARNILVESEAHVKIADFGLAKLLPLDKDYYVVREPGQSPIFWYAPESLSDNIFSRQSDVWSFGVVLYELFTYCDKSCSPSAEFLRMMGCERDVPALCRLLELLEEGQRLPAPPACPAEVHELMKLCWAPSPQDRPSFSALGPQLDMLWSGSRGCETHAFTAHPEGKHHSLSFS

[9] = molecular target: Cyclin-dependent kinase-like 3 (Homo sapiens) (UniProt Q8IVW4); assay: Inhibition of human recombinant CDKL3 at 40 nM related to control ULK1

Serine/threonine-protein kinase WNK3 (Homo sapiens), sequence (Q9BYP7 whole entry): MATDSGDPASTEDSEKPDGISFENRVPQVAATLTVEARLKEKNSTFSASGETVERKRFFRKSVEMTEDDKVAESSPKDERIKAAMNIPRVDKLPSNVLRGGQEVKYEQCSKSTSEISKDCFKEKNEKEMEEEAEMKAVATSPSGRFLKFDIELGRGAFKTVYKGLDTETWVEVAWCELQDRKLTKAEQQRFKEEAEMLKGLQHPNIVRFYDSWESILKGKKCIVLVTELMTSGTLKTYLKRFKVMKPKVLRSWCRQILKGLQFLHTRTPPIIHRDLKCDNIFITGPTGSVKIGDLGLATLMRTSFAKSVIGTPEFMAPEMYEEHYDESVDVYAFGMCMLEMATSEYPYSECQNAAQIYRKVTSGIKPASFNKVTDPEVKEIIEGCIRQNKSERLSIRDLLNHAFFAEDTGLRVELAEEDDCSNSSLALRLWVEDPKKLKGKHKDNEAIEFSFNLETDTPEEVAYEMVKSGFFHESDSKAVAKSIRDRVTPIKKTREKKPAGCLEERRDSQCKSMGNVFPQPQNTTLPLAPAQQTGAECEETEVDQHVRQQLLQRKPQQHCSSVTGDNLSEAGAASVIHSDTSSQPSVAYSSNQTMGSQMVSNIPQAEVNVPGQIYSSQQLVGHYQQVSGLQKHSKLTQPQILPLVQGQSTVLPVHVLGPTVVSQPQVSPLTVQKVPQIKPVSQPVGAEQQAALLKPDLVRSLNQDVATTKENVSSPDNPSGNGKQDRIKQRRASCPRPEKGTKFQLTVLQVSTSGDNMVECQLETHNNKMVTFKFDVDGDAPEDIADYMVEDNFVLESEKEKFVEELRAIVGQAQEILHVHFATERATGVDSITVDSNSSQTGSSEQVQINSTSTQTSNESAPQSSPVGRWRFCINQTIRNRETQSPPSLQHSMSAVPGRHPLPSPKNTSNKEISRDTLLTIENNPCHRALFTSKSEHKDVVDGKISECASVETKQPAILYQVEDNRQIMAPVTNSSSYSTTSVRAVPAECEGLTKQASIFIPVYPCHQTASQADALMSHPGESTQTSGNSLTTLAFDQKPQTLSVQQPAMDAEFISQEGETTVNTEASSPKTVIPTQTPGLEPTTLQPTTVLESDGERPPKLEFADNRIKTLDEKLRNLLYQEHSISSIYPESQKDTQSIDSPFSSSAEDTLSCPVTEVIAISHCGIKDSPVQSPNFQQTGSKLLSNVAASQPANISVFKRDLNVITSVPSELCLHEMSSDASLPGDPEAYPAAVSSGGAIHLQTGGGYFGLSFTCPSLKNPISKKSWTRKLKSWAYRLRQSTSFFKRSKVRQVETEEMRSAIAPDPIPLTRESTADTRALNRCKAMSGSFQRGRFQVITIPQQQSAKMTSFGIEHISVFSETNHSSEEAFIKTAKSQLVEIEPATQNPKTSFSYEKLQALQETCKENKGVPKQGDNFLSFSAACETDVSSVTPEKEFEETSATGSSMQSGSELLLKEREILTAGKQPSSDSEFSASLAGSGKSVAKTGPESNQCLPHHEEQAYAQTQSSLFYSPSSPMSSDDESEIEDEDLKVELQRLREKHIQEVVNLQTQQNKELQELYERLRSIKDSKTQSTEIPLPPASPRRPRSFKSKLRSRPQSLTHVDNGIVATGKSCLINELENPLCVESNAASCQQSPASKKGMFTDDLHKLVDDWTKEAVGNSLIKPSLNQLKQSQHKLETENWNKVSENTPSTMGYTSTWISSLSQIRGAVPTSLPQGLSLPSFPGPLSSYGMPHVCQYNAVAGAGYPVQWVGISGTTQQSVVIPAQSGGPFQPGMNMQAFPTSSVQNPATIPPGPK
Serine/threonine-protein kinase Chk2 (Homo sapiens), sequence (O96017 whole entry): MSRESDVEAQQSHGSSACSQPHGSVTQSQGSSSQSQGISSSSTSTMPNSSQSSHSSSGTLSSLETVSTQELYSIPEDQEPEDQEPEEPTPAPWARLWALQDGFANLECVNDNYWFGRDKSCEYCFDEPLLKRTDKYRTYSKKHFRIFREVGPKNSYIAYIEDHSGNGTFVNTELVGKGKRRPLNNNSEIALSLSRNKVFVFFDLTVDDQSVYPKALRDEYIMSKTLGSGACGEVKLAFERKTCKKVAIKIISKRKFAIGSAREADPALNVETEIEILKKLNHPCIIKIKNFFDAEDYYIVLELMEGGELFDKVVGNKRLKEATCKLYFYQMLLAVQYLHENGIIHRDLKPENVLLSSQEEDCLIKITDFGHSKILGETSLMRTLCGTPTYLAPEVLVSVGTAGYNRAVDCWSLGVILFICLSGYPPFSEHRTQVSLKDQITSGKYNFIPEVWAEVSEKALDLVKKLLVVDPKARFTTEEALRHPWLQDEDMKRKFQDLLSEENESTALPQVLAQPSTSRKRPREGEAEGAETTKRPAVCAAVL
Tyrosine-protein kinase ABL2 (Homo sapiens), sequence (P42684 whole entry): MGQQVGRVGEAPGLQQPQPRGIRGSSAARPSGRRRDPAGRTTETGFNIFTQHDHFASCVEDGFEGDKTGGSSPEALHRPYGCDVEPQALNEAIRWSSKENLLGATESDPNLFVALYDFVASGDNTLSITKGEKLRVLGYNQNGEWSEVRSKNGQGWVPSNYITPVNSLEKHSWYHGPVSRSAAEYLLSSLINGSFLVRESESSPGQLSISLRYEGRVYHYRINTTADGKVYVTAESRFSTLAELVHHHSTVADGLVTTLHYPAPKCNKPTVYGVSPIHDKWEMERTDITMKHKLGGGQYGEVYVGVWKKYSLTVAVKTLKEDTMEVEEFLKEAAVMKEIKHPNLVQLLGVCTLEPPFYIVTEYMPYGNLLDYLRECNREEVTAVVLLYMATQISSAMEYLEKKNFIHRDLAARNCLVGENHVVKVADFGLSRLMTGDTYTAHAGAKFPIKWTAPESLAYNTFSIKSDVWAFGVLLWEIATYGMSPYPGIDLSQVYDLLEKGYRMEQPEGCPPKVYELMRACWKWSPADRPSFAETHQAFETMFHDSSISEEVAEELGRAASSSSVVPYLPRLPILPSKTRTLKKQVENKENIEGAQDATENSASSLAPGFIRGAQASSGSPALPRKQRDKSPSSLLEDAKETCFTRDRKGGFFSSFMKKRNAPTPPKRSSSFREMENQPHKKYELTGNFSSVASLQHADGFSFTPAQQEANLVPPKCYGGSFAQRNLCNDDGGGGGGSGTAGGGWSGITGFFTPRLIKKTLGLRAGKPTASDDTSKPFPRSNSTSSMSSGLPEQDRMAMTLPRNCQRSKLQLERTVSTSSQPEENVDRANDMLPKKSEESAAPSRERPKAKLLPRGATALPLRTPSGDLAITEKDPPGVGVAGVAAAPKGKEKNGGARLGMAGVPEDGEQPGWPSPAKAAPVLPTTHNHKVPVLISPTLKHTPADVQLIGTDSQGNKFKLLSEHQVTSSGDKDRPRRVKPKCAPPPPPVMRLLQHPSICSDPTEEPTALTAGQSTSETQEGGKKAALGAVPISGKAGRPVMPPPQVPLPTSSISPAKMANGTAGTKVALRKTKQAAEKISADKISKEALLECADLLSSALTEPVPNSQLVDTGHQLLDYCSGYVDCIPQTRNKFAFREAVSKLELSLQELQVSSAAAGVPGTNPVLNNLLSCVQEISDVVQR
Platelet-derived growth factor receptor alpha (Homo sapiens), sequence (P16234 whole entry): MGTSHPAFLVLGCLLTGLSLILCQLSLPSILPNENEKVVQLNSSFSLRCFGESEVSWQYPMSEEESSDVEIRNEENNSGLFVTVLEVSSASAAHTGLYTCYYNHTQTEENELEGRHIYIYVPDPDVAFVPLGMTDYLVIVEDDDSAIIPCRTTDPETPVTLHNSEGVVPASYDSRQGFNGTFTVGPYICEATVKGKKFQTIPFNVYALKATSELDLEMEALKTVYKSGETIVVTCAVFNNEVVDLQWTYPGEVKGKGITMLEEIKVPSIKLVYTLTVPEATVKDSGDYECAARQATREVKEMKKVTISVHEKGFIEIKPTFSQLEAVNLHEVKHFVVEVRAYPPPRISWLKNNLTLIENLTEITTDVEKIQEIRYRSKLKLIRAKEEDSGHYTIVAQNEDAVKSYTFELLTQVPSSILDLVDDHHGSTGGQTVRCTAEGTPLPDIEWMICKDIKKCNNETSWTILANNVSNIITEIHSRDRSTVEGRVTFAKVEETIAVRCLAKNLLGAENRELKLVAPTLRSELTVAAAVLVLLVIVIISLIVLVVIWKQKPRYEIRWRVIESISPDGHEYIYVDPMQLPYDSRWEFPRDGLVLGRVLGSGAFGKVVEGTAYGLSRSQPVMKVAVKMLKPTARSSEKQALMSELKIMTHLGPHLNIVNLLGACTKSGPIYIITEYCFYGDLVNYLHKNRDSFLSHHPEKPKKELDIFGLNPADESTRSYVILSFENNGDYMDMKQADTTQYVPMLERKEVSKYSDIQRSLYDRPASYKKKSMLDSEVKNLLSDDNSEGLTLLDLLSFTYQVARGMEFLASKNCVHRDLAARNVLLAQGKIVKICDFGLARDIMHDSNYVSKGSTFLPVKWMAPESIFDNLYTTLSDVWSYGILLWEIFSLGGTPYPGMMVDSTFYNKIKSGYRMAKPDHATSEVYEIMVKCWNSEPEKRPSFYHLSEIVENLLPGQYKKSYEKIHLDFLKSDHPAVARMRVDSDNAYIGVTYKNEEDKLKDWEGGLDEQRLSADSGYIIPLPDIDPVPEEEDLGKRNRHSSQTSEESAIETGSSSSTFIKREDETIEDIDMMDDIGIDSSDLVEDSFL

fold change (FC) [1]: 0.28
SMILES: CNC(=O)c1ccccc1Oc1nc(Nc2cc(OC)c(OC)c(OC)c2)ncc1Br

fold change (FC) [2]: 0.06 | inhibition [3]: 34%
SMILES: CC(C)[C@H](NC(=O)c1cc(-c2cnn3cc(-c4ccc(OCCN5CCCCC5)cc4)cnc23)cs1)C(F)(F)F

fold change (FC) [4]: 0 | fold change (FC) [5]: 0.04 | fold change (FC) [6]: 0 | fold change (FC) [7]: 0 | inhibition [8]: 0% | fold change (FC) [9]: 0.53
SMILES: O=C(N[C@@H](C1CC1)C(F)(F)F)c1cc(-c2cnn3cc(-c4ccc(F)cc4)cnc23)cs1
